The text below walks through data of US7709014B2, “Hydroxy-oligocarboxylic esters: effects on nerve and use for cutaneous and mucocutaneous organs or sites” (priority 2005, dated 2010).

Where a name gives a salt, the structure may show the parent alone.

The subject of one test is nerves of the lips. The test is described as follows: Topical application of ester ointment or cream on the lips of human subjects: sensual, sensational, plumping or numbing feelings. Conditions: for duration of the feelings of the lips / sensual, sensational or plumping feelings of the lips / time after application until the lips experienced the feelings: 10% in water-non-washable ointment, human; for feelings of the lips: cream or ointment containing 10%, topically applied to lips (general description). It counts as in vivo. The text has this:
The mucocutaneous organs or sites include lips, mouth, gum, nostrils, nipples, vulva, vagina, penis and anus.
Ethyl glycolate 10 g was mixed with 90 g ointment prepared from white petrolatum 50 parts, mineral oil 40 parts and white beeswax 10 parts. The composition thus prepared contained 10% ethyl glycolate in a hydrophobic ointment that was not washable with water (a water-non-washable ointment).
A subject, topically applied the above 10% ethyl glycolate ointment on their lips.
L-Ethyl lactate 10 g was mixed with 90 g ointment prepared from white petrolatum 50 parts, mineral oil 40 parts and white beeswax 10 parts. The composition thus prepared contained 10% L-ethyl lactate in water-non-washable ointment. A subject, topically applied the above 10% L-ethyl lactate ointment on their lips.
DL-Diethyl malate 10 g was mixed with 90 g ointment prepared from white petrolatum 50 parts, mineral oil 40 parts and white beeswax 10 parts. The composition thus prepared contained 10% DL-diethyl malate in a water-non-washable ointment.
A subject, topically applied the above 10% DL-diethyl malate ointment on their lips.
D-Diethyl tartarate 10 g was mixed with 90 g ointment prepared from white petrolatum 50 parts, mineral oil 40 parts and white beeswax 10 parts. The composition thus prepared contained 10% D-diethyl tartarate in a water-non-washable ointment.
A subject, topically applied the above 10% D-diethyl tartarate ointment on their lips.
L-Diethyl tartarate 10 g was mixed with 90 g ointment prepared from white petrolatum 50 parts, mineral oil 40 parts and white beeswax 10 parts. The composition thus prepared contained 10% L-diethyl tartarate in a water-non-washable ointment. A subject, topically applied the above 10% L-diethyl tartarate ointment on their lips.
Trimethyl citrate 10 g was mixed with 90 g ointment prepared from white petrolatum 50 parts, mineral oil 40 parts and white beeswax 10 parts. The composition thus prepared contained 10% trimethyl citrate in a water-non-washable ointment.
A subject, topically applied the above 10% trimethyl citrate ointment on their lips.
Lidocaine 5 g was dissolved in warm propylene glycol 20 ml, and the solution thus obtained was mixed with 75 g ointment prepared from white petrolatum 50 parts, mineral oil 40 parts and white beeswax 10 parts. The composition thus prepared contained 5% lidocaine in a water-non-washable ointment.
A subject, topically applied the above 5% lidocaine ointment on their lips.
Tripropyl citrate 10 g was mixed with 90 g ointment prepared from white petrolatum 50 parts, mineral oil 40 parts and white beeswax 10 parts. The composition thus prepared contained 10% tripropyl citrate in a water-non-washable ointment.
A subject, topically applied the above 10% tripropyl citrate ointment on their lips.
Tri-isopropyl citrate 10 g was mixed with 90 g ointment prepared from white petrolatum 50 parts, mineral oil 40 parts and white beeswax 10 parts. The composition thus prepared contained 10% tri-isopropyl citrate in a water-non-washable ointment.
A subject, topically applied the above 10% tri-isopropyl citrate ointment on their lips.

For test [1], the system named is mucocutaneous organs or sites. The test is described as follows: Topical application to mucocutaneous organs or sites: general findings on sensuous, sensational and mild anesthetic effects. It is filed as in vivo, human. As to conditions: for sensuous or mild anesthetic effect: topical application, same conditions as the hydroxy-oligocarboxylic esters. The text has this: The present invention is based on the discovery that topical application of a hydroxy-oligocarboxylic ester, preferably a hydroxydicarboxylic ester or more preferably a hydroxytricarboxylic ester such as tripropyl citrate on topical application can produce sensuous, sensational and mild anesthetic effects on mucocutaneous organs or sites, such as lips, mouth, gum, nostrils, nipples, vulva, vagina, penis and anus. […] The sensuous and sensational effects produced by the hydroxy-oligocarboxylic ester, preferably a hydroxydicarboxylic ester or more preferably a hydroxytricarboxylic ester are quite different from the numbing effects induced by local anesthetics such as lidocaine and procaine. The sensuous, sensational and mild anesthetic effects produced by the hydroxy-oligocarboxylic ester according to the present invention generally last from a few minutes to a few hours. Such nerve-acting sensation or effect has many cosmetic, dental and dermatological applications. For example, a lipstick or lip balm comprising a hydroxy-oligocarboxylic ester, preferably a hydroxydicarboxylic ester or more preferably a hydroxytricarboxylic ester, can provide a sensuous or sensational feeling after topical application to lips of a human subject. Such sensuous action and certain anesthetic effects on nervous system produced by the hydroxy-oligocarboxylic ester can have beneficial applications such as to relieve itch or pain of lips, mouth, gum, nostrils, nipples, vulva, vagina, penis and anus, and for conditions associated with eczema, hemorrhoids, dry or aging-associated changes of the vulva and vagina.

Test [2] concerns itchy and eczematous skin (atopic eczema). The test is described as follows: Topical application on itching, eczematous skin of a human subject: relief of itch. It counts as in vivo. As to conditions: for effect on itch associated with eczema or psoriasis / time after topical application until the itch disappears: cream or ointment containing 10%, topically applied to eczematous or psoriatic lesions (general description). The procedure: A composition comprising a hydroxy-oligocarboxylic ester, preferably a hydroxydicarboxylic ester, and more preferably a hydroxytricarboxylic ester, can also be topically applied to mucocutaneous or skin lesions. For example, a cream or ointment containing 10% tripropyl citrate or tri-isopropyl citrate can be topically applied to eczematous or psoriatic lesions twice daily for 4 to 16 weeks.
Tripropyl citrate 10 g and propylene glycol 20 ml were mixed with hydrophilic ointment or oil-in-water emulsion 70 g. The composition thus prepared contained 10% tripropyl citrate in water-soluble oil-in-water emulsion.
A subject, having atopic eczema with severe itching skin, topically applied the above 10% tripropyl citrate cream on their right leg with itchy eczematous lesions. […]

Test [3] has the same test system. The description is as above. It counts as in vivo. As to conditions: 10% in water-non-washable ointment, itching skin of right lower leg, subject with atopic eczema.
The mark [4] stands for this setting: 5% in water-non-washable ointment with propylene glycol, topically applied on lips, subject.
The mark [5] stands for this setting: 10% cream (water-soluble oil-in-water emulsion with propylene glycol), itchy eczematous lesions of right leg, subject with atopic eczema.

Take `CCOC(=O)CC(O)C(=O)OCC` (racemic) [DL-diethyl malate, DL-Diethyl malate]: in the test with nerves of the lips (topically applied on lips), the “duration of the feelings of the lips” value lay within 10 to 20 min; the “sensual, sensational or plumping feelings of the lips” value (“sensual … of the lips” below) is “sensual and plumping feelings”; the “time after application until the lips experienced the feelings” value is “one to two”.
Consider `CCOC(=O)[C@@H](O)[C@H](O)C(=O)OCC` [D-diethyl tartarate, D-Diethyl tartarate], for which, in the test on nerves of the lips (topically applied on lips), the “duration of the feelings of the lips” value was 10 to 20 min; the “sensual … of the lips” value was “slight sensual and plumping feelings”; the “time after application until the lips experienced the feelings” value is on record as “one to two”.
Take `CCOC(=O)[C@H](O)[C@@H](O)C(=O)OCC` [L-diethyl tartarate, L-Diethyl tartarate]: in the test on nerves of the lips (topically applied on lips), the “duration of the feelings of the lips” value was 10 to 20 min; the “sensual … of the lips” value is “slight sensual and plumping feelings”; the “time after application until the lips experienced the feelings” value is on record as “one to two”.
`CCOC(=O)[C@H](C)O` [L-ethyl lactate, L-Ethyl lactate, reference compound]: the “sensual … of the lips” value in the test with nerves of the lips (topically applied on lips) was “no sensual or sensational feelings during the next 30 minutes”.
For `CCOC(=O)CO` [ethyl glycolate, Ethyl glycolate, reference compound], the “sensual … of the lips” value with nerves of the lips (topically applied on lips) is given as “no sensual or sensational feelings during the next 30 minutes”. In test [1], the “sensuous or mild anesthetic effect” value is on record as “does not produce a sensuous or mild anesthetic effect”.
For the molecule `CCOC(=O)C(C)O` (stereo not shown) [ethyl lactate], in test [1], the “sensuous or mild anesthetic effect” value is recorded as “does not produce a sensuous or mild anesthetic effect”.
Consider `CCN(CC)CC(=O)Nc1c(C)cccc1C` [lidocaine, Lidocaine, reference compound], for which, in the test with nerves of the lips (setting [4]), the “duration of the numbing effect” value is on record as “several”, the “numbing effect on the lips” value was “the lips felt numb” and the “time after application until the lips felt numb” value was “a few”.
Regarding `CC(C)OC(=O)CC(O)(CC(=O)OC(C)C)C(=O)OC(C)C` [tri-isopropyl citrate, Tri-isopropyl citrate], in the test with nerves of the lips (topically applied on lips), the “duration of the feelings of the lips” value was “about an hour”; the “sensual … of the lips” value is “sensual and sensational feelings”; the “time after application until the lips experienced the feelings” value is “a few”. Further, the “feelings of the lips” value with nerves of the lips was “sensual and sensational pleasure with very mild anesthetic effects”. In addition, in test [2], the “effect on itch associated with eczema or psoriasis” value is given as “usually disappears” and the “time after topical application until the itch disappears” value was “a few”.
On to `O=C(CC(O)(CC(=O)OCc1ccccc1)C(=O)OCc1ccccc1)OCc1ccccc1` [tribenzyl citrate, Tribenzyl citrate], for which, in the test with nerves of the lips (topically applied on lips), the “sensual … of the lips” value was “slight sensual and sensational feelings”; the “time after application until the lips experienced the feelings” value was “a few”.
`CCOC(=O)CC(O)(CC(=O)OCC)C(=O)OCC` [triethyl citrate, Triethyl citrate]: in the test on nerves of the lips (topically applied on lips), the “duration of the feelings of the lips” value lay within 20 to 30 min; the “sensual … of the lips” value is “sensual and plumping feelings”; the “time after application until the lips experienced the feelings” value is listed as “one to two”. Moreover, in the test on nerves of the lips, the “feelings of the lips” value is “sensual and sensational pleasure with very mild anesthetic effects”. For the same molecule, in test [3], the effect on itch entry is on record as “the itch stopped”, the “time after application until the itch stopped” value is on record as “a few” and the “time the skin remained free of itch” value was determined as 4 h.
`COC(=O)CC(O)(CC(=O)OC)C(=O)OC` [trimethyl citrate, Trimethyl citrate]: in the test with nerves of the lips (topically applied on lips), the “sensual … of the lips” value was “very slight sensual and plumping feelings”; the “time after application until the lips experienced the feelings” value is “one to two”.
Turning to `CCCOC(=O)CC(O)(CC(=O)OCCC)C(=O)OCCC` [tripropyl citrate, Tripropyl citrate], in the test on nerves of the lips (topically applied on lips), the “duration of the feelings of the lips” value was 90 to 120 min; the “sensual … of the lips” value was “sensual and sensational feelings”; the “time after application until the lips experienced the feelings” value was “a few”. For the same molecule, the “feelings of the lips” value in the test with nerves of the lips is “sensual and sensational pleasure with very mild anesthetic effects”. Also, the “sensuous and sensational effects compared with trimethyl citrate” value in test [1] (strength and duration, compared with trimethyl citrate) was “much stronger and longer-lasting sensuous and sensational effects”. Moreover, in test [2] (setting [5]), the effect on itch result is reported as “the itch disappeared completely”, the “time after application until the itch disappeared” value was “a few” and the “time the skin remained free of itch” value was found to be 4 h. Besides, in test [2], the “effect on itch associated with eczema or psoriasis” value is given as “usually disappears” and the “time after topical application until the itch disappears” value is recorded as “a few”.
